# From patent publication US7138361B2, “Herbicidal heterocycles” (E. I. du Pont de Nemours and Company, priority 2000, dated 2006)
# Assays:
# Assay type in all cases: in vivo
# [1] = system: goosegrass (Eleusine indica); assay: Test C postemergence
# In short: (§1)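 Response scores (0 no effect to 100 complete control) came from visual comparison with untreated controls 12 to 14 days after treatment. Preemergence application was made to seeded soil; postemergence, to plants at the 1- to 4-leaf stage.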
# [2] = system: lambsquarters (Chenopodium album); assay: Test C postemergence
# In short: as §1
# soybean (Glycine max) = assay: Test C postemergence
# In short: as §1
# [3] = system: velvetleaf (Abutilon theophrasti); assay: Test C postemergence
# In short: as §1
# [4] = system: winter barley (Hordeum vulgare); assay: Test C postemergence
# In short: as §1
# [5] = system: Italian ryegrass (Lolium multiflorum); assay: Test C postemergence
# In short: as §1
# [6] = system: blackgrass (Alopecurus myosuroides); assay: Test C postemergence
# In short: as §1
# [7] = system: canary grass (Phalaris minor); assay: Test C postemergence
# In short: as §1
# [8] = system: green foxtail (Setaria viridis); assay: Test C postemergence
# In short: as §1
# [9] = system: wheat (Triticum aestivum); assay: Test C postemergence
# In short: as §1
# [10] = system: windgrass (Apera spica-venti); assay: Test C postemergence
# In short: as §1
# [11] = system: morning glory (Ipomoea spp.); assay: Test A postemergence, sprayed to runoff; parameters: scale not given here; details: Morningglory, approx. eleven days
# Procedure: (§2) Seeds of barnyardgrass (Echinochloa crus-galli), crabgrass (Digitaria spp.), giant foxtail (Setaria viridis), morning glory (Ipomoea spp.), redroot pigweed (Amaranthus retroflexus) and velvetleaf (Abutilon theophrasti) were planted into a sandy loam soil and treated preemergence by soil drench with test chemicals formulated in a non-phytotoxic solvent mixture which included a surfactant. At the same time, these crop and weed species were also treated postemergence sprayed to runoff with test chemicals formulated in the same manner. Plants ranged in height from two to eighteen cm and were in the one- to two-leaf stage for the postemergence treatment. Treated plants and untreated controls were maintained in a greenhouse for approximately eleven days, after which time all treated plants were compared to untreated controls and visually evaluated for injury. Plant response ratings, summarized in Table A, are based on a 0 to 10 scale where 0 is no effect and 10 is complete control. A dash (-) response means no test results.
# [12] = system: velvetleaf (Abutilon theophrasti); assay: Test A postemergence, sprayed to runoff; parameters: scale not given here; details: approx. eleven days
# Procedure: as §2
# [13] = system: barnyardgrass (Echinochloa crus-galli); assay: Test A postemergence, sprayed to runoff; details: approx. eleven days
# Procedure: as §2
# [14] = system: crabgrass (Digitaria spp.); assay: Test A postemergence, sprayed to runoff; details: approx. eleven days
# Procedure: as §2
# [15] = system: giant foxtail (Setaria viridis); assay: Test A postemergence, sprayed to runoff; details: approx. eleven days
# Procedure: as §2
# [16] = system: redroot pigweed (Amaranthus retroflexus); assay: Test A postemergence, sprayed to runoff; details: approx. eleven days
# Procedure: as §2
# [17] = system: barnyardgrass (Echinochloa crus-galli); assay: Test A preemergence, soil drench; details: approx. eleven days
# Procedure: as §2
# [18] = system: crabgrass (Digitaria spp.); assay: Test A preemergence, soil drench; details: approx. eleven days
# Procedure: as §2
# [19] = system: giant foxtail (Setaria viridis); assay: Test A preemergence, soil drench; details: approx. eleven days
# Procedure: as §2
# [20] = system: morning glory (Ipomoea spp.); assay: Test A preemergence, soil drench; details: Morningglory, approx. eleven days
# Procedure: as §2
# [21] = system: redroot pigweed (Amaranthus retroflexus); assay: Test A preemergence, soil drench; details: approx. eleven days
# Procedure: as §2
# [22] = system: velvetleaf (Abutilon theophrasti); assay: Test A preemergence, soil drench; details: approx. eleven days
# Procedure: as §2
# [23] = Rate 125 g/ha, scale 0 to 100, 0 no effect, 100 complete control
# [24] = Rate 250 g/ha, scale 0 to 100 (0 no effect, 100 complete control)
# [25] = Rate 500 g/ha, scale 0 to 100 (0 no effect, 100 complete control)
smiles,measurement,setting,value
CCC(CC)c1ccn(C2OCN(c3cccc(OC(F)(F)F)c3)C2=O)n1 (centres unmarked) [Compound 68],"Plant response rating, Goosegrass","[1]; Rate 62 g/ha, scale 0 to 100",0
same,"Plant response rating, Goosegrass",[1]; [23],0
same,"Plant response rating, Goosegrass",[1]; [24],0
same,"Plant response rating, Goosegrass",[1]; [25],0
same,"Plant response rating, Lambsquarters","[2]; Rate 62 g/ha, scale 0 to 100",60
same,"Plant response rating, Lambsquarters",[2]; [23],80
same,"Plant response rating, Lambsquarters",[2]; [24],80
same,"Plant response rating, Lambsquarters",[2]; [25],100
same,"Plant response rating, Soybean","soybean (Glycine max); Rate 62 g/ha, scale 0 to 100",0
same,"Plant response rating, Soybean",soybean (Glycine max); [23],0
same,"Plant response rating, Soybean",soybean (Glycine max); [24],0
same,"Plant response rating, Soybean",soybean (Glycine max); [25],20
same,"Plant response rating, Velvetleaf","[3]; Rate 62 g/ha, scale 0 to 100",0
same,"Plant response rating, Velvetleaf",[3]; [23],0
same,"Plant response rating, Velvetleaf",[3]; [24],0
same,"Plant response rating, Velvetleaf",[3]; [25],30
same,"Plant response rating, Barley, Winter",[4]; [24],0
CC1(c2ccn(C3OCN(c4cccc(OC(F)(F)F)c4)C3=O)n2)CC1 (centres unmarked) [Compound 69],"Plant response rating, Ryegrass","[5]; Rate 62 g/ha, scale 0 to 100",0
same,"Plant response rating, Ryegrass",[5]; [23],0
same,"Plant response rating, Ryegrass",[5]; [24],0
same,"Plant response rating, Ryegrass",[5]; [25],30
same,"Plant response rating, Blackgrass","[6]; Rate 62 g/ha, scale 0 to 100",0
same,"Plant response rating, Blackgrass",[6]; [23],0
same,"Plant response rating, Blackgrass",[6]; [24],0
same,"Plant response rating, Blackgrass",[6]; [25],20
same,"Plant response rating, Canarygrass","[7]; Rate 62 g/ha, scale 0 to 100",0
same,"Plant response rating, Canarygrass",[7]; [23],0
same,"Plant response rating, Canarygrass",[7]; [24],0
same,"Plant response rating, Canarygrass",[7]; [25],0
same,"Plant response rating, Foxtail, Green","[8]; Rate 62 g/ha, scale 0 to 100",0
same,"Plant response rating, Foxtail, Green",[8]; [23],30
same,"Plant response rating, Foxtail, Green",[8]; [24],30
same,"Plant response rating, Foxtail, Green",[8]; [25],60
same,"Plant response rating, Wheat","[9]; Rate 62 g/ha, scale 0 to 100",0
same,"Plant response rating, Wheat",[9]; [23],0
same,"Plant response rating, Wheat",[9]; [24],0
same,"Plant response rating, Wheat",[9]; [25],0
same,"Plant response rating, Windgrass","[10]; Rate 62 g/ha, scale 0 to 100",0
same,"Plant response rating, Windgrass",[10]; [23],0
same,"Plant response rating, Windgrass",[10]; [24],0
same,"Plant response rating, Windgrass",[10]; [25],20
same,"Plant response rating, Barley, Winter","[4]; Rate 62 g/ha, scale 0 to 100",0
same,"Plant response rating, Barley, Winter",[4]; [23],0
same,"Plant response rating, Barley, Winter",[4]; [25],10
CC(C)(C)c1ccn(C2CCN(c3cccc(I)c3)C2=O)n1 (centres unmarked) [Compound 88],Plant response rating (visual injury vs untreated controls),[11]; Rate 500 g/ha,10
same,Plant response rating (visual injury vs untreated controls),[11]; Rate 2000 g/ha,30
same,Plant response rating (visual injury vs untreated controls),[12]; Rate 500 g/ha,0
same,Plant response rating (visual injury vs untreated controls),[12]; Rate 2000 g/ha,0
same,Plant response rating (visual injury vs untreated controls),[13]; Rate 500 g/ha,30
same,Plant response rating (visual injury vs untreated controls),[13]; Rate 2000 g/ha,80
same,Plant response rating (visual injury vs untreated controls),[14]; Rate 500 g/ha,20
same,Plant response rating (visual injury vs untreated controls),[14]; Rate 2000 g/ha,40
same,Plant response rating (visual injury vs untreated controls),[15]; Rate 500 g/ha,40
same,Plant response rating (visual injury vs untreated controls),[15]; Rate 2000 g/ha,90
same,Plant response rating (visual injury vs untreated controls),[16]; Rate 500 g/ha,80
same,Plant response rating (visual injury vs untreated controls),[16]; Rate 2000 g/ha,100
same,Plant response rating (visual injury vs untreated controls),[17]; Rate 500 g/ha,40
same,Plant response rating (visual injury vs untreated controls),[17]; Rate 2000 g/ha,100
same,Plant response rating (visual injury vs untreated controls),[18]; Rate 500 g/ha,80
same,Plant response rating (visual injury vs untreated controls),[18]; Rate 2000 g/ha,100
same,Plant response rating (visual injury vs untreated controls),[19]; Rate 500 g/ha,70
same,Plant response rating (visual injury vs untreated controls),[19]; Rate 2000 g/ha,100
same,Plant response rating (visual injury vs untreated controls),[20]; Rate 500 g/ha,0
same,Plant response rating (visual injury vs untreated controls),[20]; Rate 2000 g/ha,30
same,Plant response rating (visual injury vs untreated controls),[21]; Rate 500 g/ha,100
same,Plant response rating (visual injury vs untreated controls),[21]; Rate 2000 g/ha,100
same,Plant response rating (visual injury vs untreated controls),[22]; Rate 500 g/ha,0
same,Plant response rating (visual injury vs untreated controls),[22]; Rate 2000 g/ha,30
